The source of these data is US4939132A, “Novel 5-alkylsulfonylsalicylanilides and microbiocidal compositions for controlling the growth of microorganisms” (The Research Foundation of State University of New York, priority 1985, dated 1990).

Converted amounts (≈) assume the structure as drawn. Where two headings read alike, the source gives them in different places. Bounds are passed on as bounds.

Data set [1] concerns S. mutans. Kind of data set: Tube dilution assay (Macro-Broth Dilution Method), S. mutans. In kind it is cell-based. The settings on record: Streptococcus mutans, read-out: Minimal Inhibitory Concentration. As to the method:
(§1) Various compositions prepared in accord with the above examples were tested in vitro for minimal concentration to inhibit or kill organisms in comparison to prior art compounds. The test used is set forth in detail in Manual of Clinical Microbiology, third edition, pages 456-475 (Macro-BrothDilution Method), 1980, American society for microbiology.
(§2) In the test procedure serial dilutions of the antimicrobic compound are innoculated with the organism to be inhibited and incubated. The minimum inhibitory concentration (MIC) is the lowest concentration of antimicrobic compound that is achieved without visible growth of the organism. The test method comprises preparing a stock solution of antimicrobic compound and diluting it in a Meuller-Hinton broth. A series of sterile 13 by 100 mm, cotton-plugged, test tubes are set out wherein 2 ml of the broth diluted antimicrobic solution (working solution) is added to the first tube and to each remaining tube is added 1.0 ml of non-antimicrobic containing broth. 1.0 ml of working solution from the first tube is transferred to the second tube and thoroughly mixed therewith. Thereafter, 1.0 ml of the mixed solution is transferred to the third tube and mixed with the process continuing through the dilution steps desired. The tubes are then incubated at 35° C. for 16 to 20 hours. […] Various antimicrobic compounds designated (a)-(i) were tested for minimum inhibitory concentration in accord with the above procedure. Compounds (a)-(e) correspond to compounds (a)-(e) of example 9. Compounds (f)-(i) are as follow s: (f) 5-n -octylsulfonyl-4'-nitrosalicylanilide; (g) 5-n-decylsulfony-4'-bromosalicylanilide; (h) 5-n-hexylsulfonyl-4'-bromosalicylanilide; and, (i) 5-n-dodecylsulfonyl-4'-trifluoromethyl salicylanilide.

Data set [2] deals with S. mutans. The data set is described as follows: In vitro plaque growth inhibition (bovine enamel slabs), S. mutans. In kind it is cell-based, Streptococcus mutans. The settings on record: for Total Growth ID50 (50% growth inhibition dosage): 2 min contact, about 24 h incubation, anaerobic. As to the method: (§3) Various compositions prepared in accord with the above examples were tested in vitro for plaque inhibition in comparison with prior art compounds. The test used is set forth in detail in Comparison of Antiplaque Agents Using an In Vitro Assay Reflecting Oral Conditions by R. T. Evans et al, Journal of Dental Research, June 1977.
(§4) In summary incisor teeth from bovine mandibles, obtained immediately after slaughter, are cut into 4×8 mm enamel slabs and sterilized in a 0.15M NaCl solution buffered at a pH of 7.5 with 0.02M sodium phosphate (PBS soln). Before use the slabs are coated with sterile saliva and then rinsed twice in sterile PBS. The slabs are then placed in small plastic petri dishes containing various concentrations of the compositions to be tested. The test solution used in accordance is a solution of the test compound in a mixture of 20% by volume of ethanol, 40% by volume of propylene glycol and 40% by volume of a pH 8 aqueous buffer solution containing mono and di sodium phosphates. The slabs are left in the solution of the test compound for two minutes and then rinsed in sterile PBS solution. After rinsing, each slab is placed in a 10×75 mm cotton stoppered glass culture tube containing 1 ml of sucrose-broth culture medium which is then innoculated with a 24 hour culture of the desired microorganism standardized to an optical density (OD)540 of 0.75 for A. viscosus and S. mutans. […] of the inoculation medium is used. A. viscosus is incubated under aerobic conditions and the S. mutans is incubated under anaerobic conditions (5% CO2 and 95% H2). After incubation for about 24 hours the nonadherent organisms are removed and the tube is rinsed twice with 0.5 ml of PBS and the washings combined with the nonadherent organisms.
(§5) The tooth slabs are then transferred to 1 ml of 0.1 N NaOH and 1 ml of 0.1N NaOH is also added to the glass culture tubes. The slabs and tubes are then sonically agitated, if necessary to suspend the adherent organisms. The optical density of each of the three fractions is then measured on a spectophotometer. The tests are repeated with varying concentrations of the compositions being tested until growth inhibition curves can be developed. The 50% growth inhibition dosages (ID50) are then determined with a reliability of +or -80% or better. The compounds tested are samples (a)-(e) as follows: (a) tribromosalan; (b) 5-n-decanoyl-4'-nitrosalicylanilide; (c) 5-n-decylsulfonyl-4'-nitro-salicylanilide; (d) 5-n-decylsulfonyl-4'-trifluoromethyl-salicylanilide; and, (e) 5-n-decylsulfonyl-3'-trifluoromethyl-salicylanilide.

Data set [3] relates to A. viscosus. Kind of data set: Tube dilution assay (Macro-Broth Dilution Method), A. viscosus. In kind it is cell-based. The note with it: Actinomyces viscosus, read-out: Minimal Inhibitory Concentration. As to the method:
as §1, §2
Background: Broth dilution looks for growth in wells or tubes with falling amounts of substance.

For the next data set, the system named is S. aureus. The data set is described as follows: Tube dilution assay (Macro-Broth Dilution Method), S. aureus. The format is cell-based. The settings on record: Staphylococcus aureus, Mueller-Hinton broth, 35° C., 16 to 20 hours, read-out: Minimal Inhibitory Concentration. Here is the method: as §1, §2
Data set [4] deals with A. viscosus. Kind of data set: In vitro plaque growth inhibition (bovine enamel slabs), A. viscosus. In kind it is cell-based, Actinomyces viscosus. The settings on record: for Total Growth ID50 (50% growth inhibition dosage): 2 min contact, about 24 h incubation, aerobic. As to the method: as §3, §4, §5
Another data set has as its system S. epidermidis. Kind of data set: Tube dilution assay (Macro-Broth Dilution Method), S. epidermidis. The settings on record: Staphylococcus epidermidis, read-out: Minimal Inhibitory Concentration. In kind it is cell-based. Here is the method: as §1, §2
The test system of a further data set is S. pyogenes. The data set is described as follows: Tube dilution assay (Macro-Broth Dilution Method), S. pyogenes. The format is cell-based. The settings on record: Streptococcus pyogenes, read-out: Minimal Inhibitory Concentration. Here is the method:
as §1, §2

Data set [5] is described as follows: Acute oral toxicity, single dose. In kind it is in vivo. The note with it: rat, in vivo; single dose oral route, Sprague-Dawley white rats. As to the method: (§6) Twelve female white rats averaging 250-300 grams in weight were fasted overnight and divided into three groups of four animals each. In one group each animal received, by gavage tube, 4 ml of an aqueous solution of 1% methylcellulose, the drug delivery vehicle. This group was the control group. The remaining two groups received doses of 750 and 2500 mg/kg respectively of 5-n-decylsulfonyl-4'-trifluoromethyl-salicylanilide in 4-ml aqueous 1% methyl cellulose suspension.
(§7) Within the first week following this single dose only one animal died.
(§8) An autopsy was performed and the cause of death was attributed to a punctured thoracic cavity during administration of the drug.

For another data set, the system named is white rats. The data set is described as follows: Acute oral toxicity, single dose. In kind it is in vivo. The note with it: 2,500 mg/kg dose group, eighth day; attributed to a punctured thoracic cavity during administration. Here is the method: as §6, §7, §8
The subject of a further data set is man. The note with it: in man; cited from earlier work.
The mark [6] stands for this setting: S. mutans, Mueller-Hinton broth, 35° C., 16 to 20 hours.
The mark [7] stands for this setting: A. viscosus, Mueller-Hinton broth, 35° C., 16 to 20 hours.
The mark [8] stands for this setting: S. epidermidis, Mueller-Hinton broth, 35° C., 16 to 20 hours.
[9] abbreviates: S. pyogenes, Mueller-Hinton broth, 35° C., 16 to 20 hours.

As for `O=C(Nc1ccc(Br)cc1)c1cc(Br)cc(Br)c1O` [(a), tribromosalan, reference compound], the MIC in the data set with S. mutans [1] amounted to 1 µg/mL (≈ 2.22 µM); in the data set with A. viscosus [3] it was 0.5 µg/mL (≈ 1.11 µM); with S. aureus it was 1 µg/mL (≈ 2.22 µM); in the data set on S. epidermidis, 0.5 µg/mL (≈ 1.11 µM); in the data set on S. pyogenes it was 0.5 µg/mL (≈ 1.11 µM). Moreover, the entries for the “Total Growth ID50 (50% growth inhibition dosage)” value in the data set on S. mutans [2] and in the data set with A. viscosus [4] were 1.2 × 10^-7 and 8.8 × 10^-4, respectively. For the same molecule, the “Maximum % Inhibition” value with S. mutans [2] (at 0.2%) amounted to 46%; with A. viscosus [4] (at 0.2%), 53%.
Take `CCCCCCCCCC(=O)c1ccc(O)c(C(=O)Nc2ccc([N+](=O)[O-])cc2)c1` [(b), 5-n-decanoyl-4'-nitrosalicylanilide, reference compound]: the MIC with S. mutans [1] (setting [6]) was 5 µg/mL (≈ 12.1 µM); with A. viscosus [3] (setting [7]), 0.05 µg/mL (≈ 0.121 µM); in the data set on S. aureus, 0.1 µg/mL (≈ 0.242 µM); in the data set with S. epidermidis (setting [8]), 0.1 µg/mL (≈ 0.242 µM); in the data set on S. pyogenes (setting [9]), 0.1 µg/mL (≈ 0.242 µM). Further, the “Total Growth ID50 (50% growth inhibition dosage)” value is reported as 2.3 × 10^-2 in the data set on S. mutans [2] and 1.1 × 10^-4 in the data set on A. viscosus [4]. The “Maximum % Inhibition” value worked out at 59% in the data set on S. mutans [2] (at 0.2%) and 90% in the data set on A. viscosus [4] (at 0.2%).
Regarding `CCCCCCCCCCS(=O)(=O)c1ccc(O)c(C(=O)Nc2ccc([N+](=O)[O-])cc2)c1` [(c), 5-n-decylsulfonyl-4'-nitro-salicylanilide], the MIC in the data set on S. mutans [1] (setting [6]), in the data set with A. viscosus [3] (setting [7]), in the data set on S. aureus, with S. epidermidis (setting [8]) and in the data set on S. pyogenes (setting [9]) was 0.5 µg/mL (≈ 1.08 µM) in each case. The “Total Growth ID50 (50% growth inhibition dosage)” value in the data set on S. mutans [2] is listed as 1.9 × 10^-4; in the data set on A. viscosus [4] it was 2.3 × 10^-4. The “Maximum % Inhibition” value in the data set on S. mutans [2] (at 0.2%) worked out at 80%; in the data set with A. viscosus [4] (at 0.2%), 93%.
`CCCCCCCCCCS(=O)(=O)c1ccc(O)c(C(=O)Nc2ccc(C(F)(F)F)cc2)c1` [(d), 5-n-decylsulfonyl-4'-trifluoromethyl-salicylanilide]: the MIC was 0.5 µg/mL (≈ 1.03 µM) with S. mutans [1] (setting [6]); 0.1 µg/mL (≈ 0.206 µM) in the data set on A. viscosus [3] (setting [7]); 0.5 µg/mL (≈ 1.03 µM) with S. aureus; 0.1 µg/mL (≈ 0.206 µM) in the data set with S. epidermidis (setting [8]); 0.5 µg/mL (≈ 1.03 µM) in the data set with S. pyogenes (setting [9]). Also, in data set [5], the LD50 was more than 2500 mg/kg. Besides, in the data set with white rats, the deaths result was “a second animal died”. In addition, the “Total Growth ID50 (50% growth inhibition dosage)” value in the data set on S. mutans [2] was 1.9 × 10^-3; in the data set with A. viscosus [4], 0.9 × 10^-4. The “Maximum % Inhibition” value in the data set on S. mutans [2] (at 0.2%) is reported as 76%; in the data set on A. viscosus [4] (at 0.2%) it was 95%.
Regarding `CCCCCCCCCCS(=O)(=O)c1ccc(O)c(C(=O)Nc2cccc(C(F)(F)F)c2)c1` [(e), 5-n-decylsulfonyl-3'-trifluoromethyl-salicylanilide], the MIC in the data set with S. mutans [1] (setting [6]) stood at 5 µg/mL (≈ 10.3 µM); in the data set on A. viscosus [3] (setting [7]), 0.5 µg/mL (≈ 1.03 µM); with S. aureus, 20 µg/mL (≈ 41.2 µM); with S. epidermidis (setting [8]), 0.5 µg/mL (≈ 1.03 µM); with S. pyogenes (setting [9]), 0.5 µg/mL (≈ 1.03 µM). Also, the “Total Growth ID50 (50% growth inhibition dosage)” value with S. mutans [2] is reported as 2.2 × 10^-3; in the data set on A. viscosus [4], 6.8 × 10^-4. Moreover, the “Maximum % Inhibition” value was determined as 47% in the data set with S. mutans [2] (at 0.1%) and 83% in the data set on A. viscosus [4] (at 0.1%).
For the molecule `CCCCCCCCS(=O)(=O)c1ccc(O)c(C(=O)Nc2ccc([N+](=O)[O-])cc2)c1` [(f), 5-n-octylsulfonyl-4'-nitrosalicylanilide], the MIC in the data set with S. mutans [1] (setting [6]) is 0.5 µg/mL (≈ 1.15 µM); in the data set on A. viscosus [3] (setting [7]) it was 1 µg/mL (≈ 2.3 µM); in the data set with S. aureus, 5 µg/mL (≈ 11.5 µM); with S. epidermidis (setting [8]), 5 µg/mL (≈ 11.5 µM); with S. pyogenes (setting [9]) it was 5 µg/mL (≈ 11.5 µM).
Consider `CCCCCCCCCCS(=O)(=O)c1ccc(O)c(C(=O)Nc2ccc(Br)cc2)c1` [(g), 5-n-decylsulfony-4'-bromosalicylanilide], for which the MIC with S. mutans [1] (setting [6]) came to 1 µg/mL (≈ 2.01 µM); in the data set with A. viscosus [3] (setting [7]) it was 0.5 µg/mL (≈ 1.01 µM); in the data set on S. aureus it was 5 µg/mL (≈ 10.1 µM); in the data set with S. epidermidis (setting [8]) it was 0.5 µg/mL (≈ 1.01 µM); in the data set on S. pyogenes (setting [9]) it was 0.5 µg/mL (≈ 1.01 µM).
For the molecule `CCCCCCS(=O)(=O)c1ccc(O)c(C(=O)Nc2ccc(Br)cc2)c1` [(h), 5-n-hexylsulfonyl-4'-bromosalicylanilide], the MIC in the data set on A. viscosus [3] (setting [7]) is 5 µg/mL (≈ 11.4 µM); in the data set with S. aureus it was 5 µg/mL (≈ 11.4 µM); with S. epidermidis (setting [8]), 10 µg/mL (≈ 22.7 µM); with S. pyogenes (setting [9]), 5 µg/mL (≈ 11.4 µM).
With `CCCCCCCCCCCCS(=O)(=O)c1ccc(O)c(C(=O)Nc2ccc(C(F)(F)F)cc2)c1` [(i), 5-n-dodecylsulfonyl-4'-trifluoromethyl salicylanilide], the MIC in the data set on A. viscosus [3] (setting [7]) worked out at 0.05 µg/mL (≈ 0.0973 µM); with S. aureus, 0.5 µg/mL (≈ 0.973 µM); in the data set on S. epidermidis (setting [8]), 0.1 µg/mL (≈ 0.195 µM); with S. pyogenes (setting [9]), 0.5 µg/mL (≈ 0.973 µM).
For the molecule tetrachlorosalicylanilide, the allergic reactions entry in the data set on man is listed as “has been shown to produce allergic reactions in man”.

As usually defined, the LD50 is the dose expected to kill half of the subjects tested. A lower LD50 goes with greater toxicity.
